Where two headings read alike, the source gives them in different places.
Biological target: recombinant Mcl-1 (residues 172-327) (Homo sapiens (Human), UniProt Q07820)
Assay: Bak peptide binding assay, fluorescence polarization anisotropy competition (FITC-Bak), Mcl-1;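 further: displacement of labeled Bak peptide read by fluorescence anisotropy, 10-point threefold dilutions from 20 µM top dose in 5% DMSO, 90 min incubation at room temperature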
[1] = Table 3, binned ranges, FITC-Bak peptide 10 nM, Mcl-1 14 nM, read-out: Ki for inhibition of Mcl-1

recombinant Mcl-1 (residues 172-327), sequence (Q07820 172-327): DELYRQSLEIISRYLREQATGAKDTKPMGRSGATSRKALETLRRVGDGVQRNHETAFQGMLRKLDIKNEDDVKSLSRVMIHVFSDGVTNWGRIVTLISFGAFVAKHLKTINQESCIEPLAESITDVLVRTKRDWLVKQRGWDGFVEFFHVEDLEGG
Procedure: Bak Peptide Binding Assay
Compound affinity was measured using a fluorescence polarization anisotropy competition assay. Anisotropy measurements were carried out in 384-well, black, flat-bottom plates (Greiner Bio-one, Monroe, N.C., USA). […] 10 nM FITC-Bak peptide and 14 nM recombinant Mcl-1 (residues 172-327) were added to assay buffer (3 mM dithiothreitol, 50 mM NaCl, 20 mM Tris, pH 7.5).
Compounds are diluted in DMSO in a 10-point, 3-fold serial dilution scheme. 2.5 uL compound is added to 47.5 uL of assay buffer containing FITC-Bak and protein, for a final DMSO concentration of 5% and a top concentration of 20 uM. […] The plate was mixed and incubated for 90 minutes at room temperature. Anisotropy is measured at excitation wavelength 480 nm and emission wavelength 535 nm using an EnVision Multi-label plate reader (PerkinElmer, Wellesley, Mass., USA).

Compound | Ki [1] [nM] | Ki [nM]
CCC(C(=O)O)n1cc(CCCOc2cc(C)c(Cl)c(C)c2)c2ccccc21 (racemic) [Example 52, (±)-2-(3-(3-(4-chloro-3,5-dimethylphenoxy)propyl)-1H-indol-1-yl)butanoic acid] | 501 to 999 | –
Cc1cc(OCCCc2cn(C(C(=O)O)c3ccccc3)c3ccccc23)cc(C)c1Cl (racemic) [Example 53, (±)-2-(3-(3-(4-chloro-3,5-dimethylphenoxy)propyl)-1H-indol-1-yl)-2-phenylacetic acid] | 501 to 999 | –
Cc1cc(OCCCc2cn(C(C)CC(=O)O)c3ccccc23)cc(C)c1Cl (racemic) [Example 55, (±)-3-(3-(3-(4-chloro-3,5-dimethylphenoxy)propyl)-1H-indol-1-yl)butanoic acid] | 501 to 999 | –
Cc1cc(OCCCc2cn(C(CC(=O)O)c3ccccc3)c3ccccc23)cc(C)c1Cl (racemic) [Example 56, (±)-3-(3-(3-(4-chloro-3,5-dimethylphenoxy)propyl)-1H-indol-1-yl)-3-phenylpropanoic acid] | 501 to 999 | –
Cc1cc(OCCCc2cn(C(C)C(=O)NS(C)(=O)=O)c3ccccc23)cc(C)c1Cl (racemic) [Example 59, (±)-2-(3-(3-(4-chloro-3,5-dimethylphenoxy)propyl)-1H-indol-1-yl)-N-(methylsulfonyl)propanamide] | 501 to 999 | –
CCC(C(=O)NS(C)(=O)=O)n1cc(CCCOc2cc(C)c(Cl)c(C)c2)c2ccccc21 (racemic) [Example 60, (±)-2-(3-(3-(4-chloro-3,5-dimethylphenoxy)propyl)-1H-indol-1-yl)-N-(methylsulfonyl)butanamide] | 501 to 999 | –
O=C(O)Cc1cn(CCCOc2cccc3ccccc23)c2ccccc12 [Example 1, 2-(1-(3-(naphthalen-1-yloxy)propyl)-1H-indol-3-yl)acetic acid] | 1000 to 9990 | –
O=C(O)Cc1cn(CCCOc2ccc3ccccc3c2)c2ccccc12 [Example 2, 2-(1-(3-(naphthalen-2-yloxy)propyl)-1H-indol-3-yl)acetic acid] | 10000 to 50000 | –
Cc1cc(OCCCn2cc(CC(=O)NS(C)(=O)=O)c3ccccc32)cc(C)c1Cl [Example 4, 2-(1-(3-(4-chloro-3,5-dimethylphenoxy)propyl)-1H-indol-3-yl)-N-(methylsulfonyl)acetamide] | 1000 to 9990 | –
Cc1cc(OCCCc2cn(CC(=O)O)c3ccccc23)cc(C)c1Cl [Example 5, 2-(3-(3-(4-chloro-3,5-dimethylphenoxy)propyl)-1H-indol-1-yl)acetic acid] | 501 to 999 | –
O=C(O)Cn1cc(CCCOc2cccc3ccccc23)c2ccccc21 [Example 6, 2-(3-(3-(naphthalen-1-yloxy)propyl)-1H-indol-1-yl)acetic acid] | 1000 to 9990 | –
O=C(O)Cn1cc(CCCOc2cccc3ccccc23)c2ccc(Cl)cc21 [Example 8, 2-(6-chloro-3-(3-(naphthalen-1-yloxy)propyl)-1H-indol-1-yl)acetic acid] | 1000 to 9990 | –
Cc1cc(OCCCc2cn(CC(=O)O)c3cccc(Cl)c23)cc(C)c1Cl [Example 9, 2-(4-chloro-3-(3-(4-chloro-3,5-dimethylphenoxy)propyl)-1H-indol-1-yl)acetic acid] | 501 to 999 | –
O=C(O)Cn1cc(CCCOc2cccc3ccccc23)c2c(Cl)cccc21 [Example 10, 2-(4-chloro-3-(3-(naphthalen-1-yloxy)propyl)-1H-indol-1-yl)acetic acid] | 1000 to 9990 | –
O=C(O)CCn1cc(CCCOc2cccc3ccccc23)c2ccccc21 [Example 11, 3-(3-(3-(naphthalen-1-yloxy)propyl)-1H-indol-1-yl)propanoic acid] | 1000 to 9990 | –
Cc1cc(OCCCc2cn(CCC(=O)O)c3cc(Cl)ccc23)cc(C)c1Cl [Example 13, 3-(6-chloro-3-(3-(4-chloro-3,5-dimethylphenoxy)propyl)-1H-indol-1-yl)propanoic acid] | 101 to 299 | –
O=C(O)CCn1cc(CCCOc2cccc3ccccc23)c2c(Cl)cccc21 [Example 16, 3-(4-chloro-3-(3-(naphthalen-1-yloxy)propyl)-1H-indol-1-yl)propanoic acid] | 1000 to 9990 | –
Cc1cc(OCC(C)Cc2cn(CCC(=O)O)c3ccccc23)cc(C)c1Cl (stereo not drawn) [Example 17, 3-(3-(3-(4-chloro-3,5-dimethylphenoxy)-2-methylpropyl)-1H-indol-1-yl)propanoic acid] | 1000 to 9990 | –
Cc1cc(OCCCc2cn(CCC(=O)NS(C)(=O)=O)c3ccccc23)cc(C)c1Cl [Example 18, 3-(3-(3-(4-chloro-3,5-dimethylphenoxy)propyl)-1H-indol-1-yl)-N-(methylsulfonyl)propanamide] | 1000 to 9990 | –
CS(=O)(=O)NC(=O)CCn1cc(CCCOc2cccc3ccccc23)c2ccccc21 [Example 19, 3-(3-(3-(naphthalen-1-yloxy)propyl)-1H-indol-1-yl)-N-(methylsulfonyl)propanamide] | 1000 to 9990 | –

Compound | Ki [1] [nM] | Ki [nM]
CS(=O)(=O)NC(=O)CCn1cc(CCCOc2cccc3ccccc23)c2ccc(Cl)cc21 [Example 21, 3-(6-chloro-3-(3-(naphthalen-1-yloxy)propyl)-1H-indol-1-yl)-N-(methylsulfonyl)propanamide] | 501 to 999 | –
CS(=O)(=O)NC(=O)CCn1cc(CCCOc2cccc3ccccc23)c2c(Cl)cccc21 [Example 23, 3-(4-chloro-3-(3-(naphthalen-1-yloxy)propyl)-1H-indol-1-yl)-N-(methylsulfonyl)propanamide] | 1000 to 9990 | –
CS(=O)(=O)NC(=O)Cn1cc(CCCOc2cccc3ccccc23)c2ccccc21 [Example 24, N-(methylsulfonyl)-2-(3-(3-(naphthalen-1-yloxy)propyl)-1H-indol-1-yl)acetamide] | 1000 to 9990 | –
CS(=O)(=O)NC(=O)Cn1cc(CCCOc2cccc3ccccc23)c2c(Cl)cccc21 [Example 28, 2-(4-chloro-3-(3-(naphthalen-1-yloxy)propyl)-1H-indol-1-yl)-N-(methylsulfonyl)acetamide] | 1000 to 9990 | –
Cc1cc(OCCCc2cn(CCC(=O)O)c3c(Br)cccc23)cc(C)c1Cl [Example 29, 3-(7-bromo-3-(3-(4-chloro-3,5-dimethylphenoxy)propyl)-1H-indol-1-yl)propanoic acid] | 301 to 500 | –
Cc1cc(OCCCc2cn(CCC(=O)O)c3c(-c4c(COc5ccccc5)nn(C)c4C)cccc23)cc(C)c1Cl [Example 30, 3-(3-(3-(4-chloro-3,5-dimethylphenoxy)propyl)-7-(1,5-dimethyl-3-(phenoxymethyl)-1H-pyrazol-4-yl)-1H-indol-1-yl)propanoic acid] | 101 to 299 | –
Cc1cc(OCCCc2cn(CCC(=O)O)c3c(-c4ccccc4)cccc23)cc(C)c1Cl [Example 31, 3-(3-(3-(4-chloro-3,5-dimethylphenoxy)propyl)-7-phenyl-1H-indol-1-yl)propanoic acid] | 301 to 500 | –
Cc1cc(OCCCc2cn(CCC(=O)O)c3c(-c4cccnc4)cccc23)cc(C)c1Cl [Example 33, 3-(3-(3-(4-chloro-3,5-dimethylphenoxy)propyl)-7-(pyridin-3-yl)-1H-indol-1-yl)propanoic acid] | 501 to 999 | –
Cc1cc(OCCCc2cn(CCC(=O)O)c3c(-c4cc[nH]n4)cccc23)cc(C)c1Cl [Example 35, 3-(3-(3-(4-chloro-3,5-dimethylphenoxy)propyl)-7-(1H-pyrazol-3-yl)-1H-indol-1-yl)propanoic acid] | 101 to 299 | –
Cc1cc(OCCCc2cn(CCC(=O)O)c3c(-c4cn[nH]c4)cccc23)cc(C)c1Cl [Example 36, 3-(3-(3-(4-chloro-3,5-dimethylphenoxy)propyl)-7-(1H-pyrazol-4-yl)-1H-indol-1-yl)propanoic acid] | 101 to 299 | –
Cc1cc(OCCCc2cn(CCC(=O)NS(=O)(=O)c3ccccc3)c3cc(Cl)ccc23)cc(C)c1Cl [Example 37, 3-(6-chloro-3-(3-(4-chloro-3,5-dimethylphenoxy)propyl)-1H-indol-1-yl)-N-(phenylsulfonyl)propanamide] | – | 101 to 299
Cc1cc(OCCCc2cn(CCC(=O)NS(=O)(=O)Cc3ccccc3)c3cc(Cl)ccc23)cc(C)c1Cl [Example 38, N-(benzylsulfonyl)-3-(6-chloro-3-(3-(4-chloro-3,5-dimethylphenoxy)propyl)-1H-indol-1-yl)propanamide] | 301 to 500 | –
Cc1cc(OCCCc2cn(CCC(=O)NS(=O)(=O)C3CC3)c3cc(Cl)ccc23)cc(C)c1Cl [Example 39, 3-(6-chloro-3-(3-(4-chloro-3,5-dimethylphenoxy)propyl)-1H-indol-1-yl)-N-(cyclopropylsulfonyl)propanamide] | 301 to 500 | –
Cc1cc(OCCCc2cn(CCC(=O)NS(=O)(=O)c3ccc(Oc4ccccc4)cc3)c3cc(Cl)ccc23)cc(C)c1Cl [Example 40, 3-(6-chloro-3-(3-(4-chloro-3,5-dimethylphenoxy)propyl)-1H-indol-1-yl)-N-((4-phenoxyphenyl)sulfonyl)propanamide] | 301 to 500 | –
COc1ccc(Oc2ccc(S(=O)(=O)NC(=O)CCn3cc(CCCOc4cc(C)c(Cl)c(C)c4)c4ccc(Cl)cc43)cc2)cc1 [Example 41, 3-(6-chloro-3-(3-(4-chloro-3,5-dimethylphenoxy)propyl)-1H-indol-1-yl)-N-((4-(4-methoxyphenoxy)phenyl)sulfonyl)propanamide] | 101 to 299 | –
Cc1cc(OCCCc2c(C)n(CCC(=O)NS(C)(=O)=O)c3cc(Cl)ccc23)cc(C)c1Cl [Example 46, 3-(6-chloro-3-(3-(4-chloro-3,5-dimethylphenoxy)propyl)-2-methyl-1H-indol-1-yl)-N-(methylsulfonyl)propanamide] | ≤ 100 | –
Cc1cc(OCCCc2c(C#N)n(CCC(=O)O)c3ccccc23)cc(C)c1Cl [Example 48, 3-(3-(3-(4-chloro-3,5-dimethylphenoxy)propyl)-2-cyano-1H-indol-1-yl)propanoic acid] | 501 to 999 | –
Cc1cc(OCCCc2c(C#N)n(CC(=O)NS(C)(=O)=O)c3ccccc23)cc(C)c1Cl [Example 50, 2-(3-(3-(4-chloro-3,5-dimethylphenoxy)propyl)-2-cyano-1H-indol-1-yl)-N-(methylsulfonyl)acetamide] | 1000 to 9990 | –
Cc1cc(OCCn2cc(CC(=O)O)c3ccccc32)cc(C)c1Cl [Example 62, 2-(1-(2-(4-chloro-3,5-dimethylphenoxy)ethyl)-1H-indol-3-yl)acetic acid] | 1000 to 9990 | –

From US10954193B2 (Vanderbilt University, priority 2013, dated 2021)
